Each molecule was assayed against T1, human full-length MKNK1 (Homo sapiens, UniProt Q9BUB5, T385D) (assay: MKNK1 kinase high ATP assay (TR-FRET)). Settings: high ATP (2 mM), 15 min preincubation with enzyme, GST-MKNK1 (T344D).
T1 construct: purchased Carna Biosciences 02-145; host or cells: insect cells, baculovirus expression system
Format: biochemical
Description: MKNK1-inhibitory activity at high ATP of compounds of the present invention after their preincubation with MKNK1 was quantified employing the TR-FRET-based MKNK1 high ATP assay as described in the following paragraphs.
A recombinant fusion protein of Glutathione-S-Transferase (GST, N-terminally) and human full-length MKNK1 (amino acids 1-424 and T344D of accession number BAA 19885.1), expressed in insect cells using baculovirus expression system and purified via glutathione sepharose affinity chromatography, was purchased from Carna Biosciences (product no 02-145) and used as enzyme. As substrate for the kinase reaction the biotinylated peptide biotin-Ahx-IKKRKLTRRKSLKG (C-terminus in amide form) was used, which can be purchased e.g. from the company Biosyntan (Berlin-Buch, Germany).
For the assay 50 nL of a 100fold concentrated solution of the test compound in DMSO was pipetted into a black low volume 384well microtiter plate (Greiner Bio-One, Frickenhausen, Germany), 2 μL of a solution of MKNK1 in aqueous assay buffer [50 mM HEPES pH 7.5, 5 mM MgCl2, 1.0 mM dithiothreitol, 0.005% (v/v) Nonidet-P40 (Sigma)] was added and the mixture was incubated for 15 min at 22° C. to allow pre-binding of the test compounds to the enzyme before the start of the kinase reaction. Then the kinase reaction was started by the addition of 3 μL of a solution of adenosine-tri-phosphate (ATP, 3.3 mM=>final conc. in the 5 μL assay volume is 2 mM) and substrate (0.1 μM=>final conc. in the 5 μL assay volume is 0.06 μM) in assay buffer and the resulting mixture was incubated for a reaction time of 30 min at 22° C. The concentration of MKNK1 was adjusted depending of the activity of the enzyme lot and was chosen appropriate to have the assay in the linear range, typical concentrations were in the range of 0.003 μg/mL. The reaction was stopped by the addition of 5 μL of a solution of TR-FRET detection reagents (5 nM streptavidine-XL665 [Cisbio Bioassays, Codolet, France] and 1 nM anti-ribosomal protein […] (pSer236)-antibody from Invitrogen [#44921G] and 1 nM LANCE EU-W1024 labeled ProteinG [Perkin-Elmer, product no. AD0071]) in an aqueous EDTA-solution (100 mM EDTA, 0.1% (w/v) bovine serum albumin in 50 mM HEPES pH 7.5).
The resulting mixture was incubated for 1 h at 22° C. to allow the formation of complex between the phosphorylated biotinylated peptide and the detection reagents. Subsequently the amount of phosphorylated substrate was evaluated by measurement of the resonance energy transfer from the Eu-chelate to the streptavidine-XL. Therefore, the fluorescence emissions at 620 nm and 665 nm after excitation at 350 nm were measured in a TR-FRET reader, e.g. a Rubystar (BMG Labtechnologies, Offenburg, Germany) or a Viewlux (Perkin-Elmer). The ratio of the emissions at 665 nm and at […] was taken as the measure for the amount of phosphorylated substrate. The data were normalised (enzyme reaction without inhibitor=0% inhibition, all other assay components but no enzyme=100% inhibition).

T1 sequence (Q9BUB5 1-424 isoform Q9BUB5-2 T344D): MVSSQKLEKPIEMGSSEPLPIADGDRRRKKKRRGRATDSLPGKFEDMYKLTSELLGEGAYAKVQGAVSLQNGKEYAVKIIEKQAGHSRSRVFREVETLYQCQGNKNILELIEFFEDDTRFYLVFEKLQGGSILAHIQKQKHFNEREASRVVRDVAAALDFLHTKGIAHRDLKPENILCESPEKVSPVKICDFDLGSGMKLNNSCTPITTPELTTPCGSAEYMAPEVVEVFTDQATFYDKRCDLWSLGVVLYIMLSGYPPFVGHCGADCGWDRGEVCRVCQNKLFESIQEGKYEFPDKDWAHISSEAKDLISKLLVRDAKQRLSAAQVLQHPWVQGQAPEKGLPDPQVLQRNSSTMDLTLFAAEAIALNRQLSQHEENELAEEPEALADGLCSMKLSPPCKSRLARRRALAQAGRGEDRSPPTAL

Row | IC50 | SMILES
1 | 12300 nM | O=C(O)C1CCc2[nH]c3ncnc(Nc4cc5[nH]c(=O)[nH]c5cc4Cl)c3c2C1 (racemic) [Example 237, (RS)-4-[(6-Chloro-2-oxo-2,3-dihydro-1H-benzimidazol-5-yl)amino]-6,7,8,9-tetrahydro-5H-pyrimido[4,5-b]indole-6-carboxylic acid]
2 | 51 nM | CCOC(=O)CNC(=O)C1CCc2[nH]c3ncnc(Nc4ccc(F)cc4OCCO)c3c2C1 (racemic) [Example 228, (RS)-Ethyl N-[(4-{[4-fluoro-2-(2-hydroxyethoxy)phenyl]amino}-6,7,8,9-tetrahydro-5H-pyrimido[4,5-b]indol-6-yl)carbonyl]glycinate]
3 | 249 nM | COc1ccc(F)cc1Nc1ncnc2[nH]c3c(c12)CC(C(=O)NCCC(F)(F)F)CC3 (racemic) [Example 198, (RS)-4-[(5-Fluoro-2-methoxyphenyl)amino]-N-(3,3,3-trifluoropropyl)-6,7,8,9-tetrahydro-5H-pyrimido[4,5-b]indole-6-carboxamide]
4 | 6 nM | CCNC(=O)C1CCc2[nH]c3ncnc(Nc4cc5cn[nH]c5cc4OC)c3c2C1 (racemic) [Example 218, (RS)—N-Ethyl-4-[(6-methoxy-1H-indazol-5-yl)amino]-6,7,8,9-tetrahydro-5H-pyrimido[4,5-b]indole-6-carboxamide]
5 | 267 nM | CC(C)NC(=O)C1CCc2[nH]c3ncnc(Nc4ccccc4N4CCOCC4)c3c2C1 (racemic) [Example 202, (RS)-4-{[2-(Morpholin-4-yl)phenyl]amino}-N-(propan-2-yl)-6,7,8,9-tetrahydro-5H-pyrimido[4,5-b]indole-6-carboxamide]
6 | 4 nM | COc1cc2[nH]ncc2cc1Nc1ncnc2[nH]c3c(c12)CC(C(=O)N1CCN(C)CC1)CC3 (racemic) [Example 221, (RS)-{4-[(6-Methoxy-1H-indazol-5-yl)amino]-6,7,8,9-tetrahydro-5H-pyrimido[4,5-b]indol-6-yl}(4-methylpiperazin-1-yl)methanone]
7 | 84 nM | CNC(=O)C1CCc2[nH]c3ncnc(Nc4ccccc4OC4CCCC4)c3c2C1 (racemic) [Example 189, (RS)-4-{[2-(Cyclopentyloxy)phenyl]amino}-N-methyl-6,7,8,9-tetrahydro-5H-pyrimido[4,5-b]indole-6-carboxamide]

The next lines start with the molecule.

Row | SMILES | IC50
8 | COc1cc(F)ccc1Sc1ncnc2[nH]c3c(c12)CC(C(=O)NCCCS(C)(=O)=O)CC3 (racemic) [Example 147, (RS)-4-[(4-Fluoro-2-methoxyphenyl)sulfanyl]-N-[3-(methylsulfonyl)propyl]-6,7,8,9-tetrahydro-5H-pyrimido[4,5-b]indole-6-carboxamide] | 5920 nM
9 | COCC1(OC)CCc2[nH]c3ncnc(Nc4ccc(F)cc4OC4CCCC4)c3c2C1 (racemic) [Example 134] | 1650 nM
10 | CCOC(=O)C1CCc2[nH]c3ncnc(Nc4ccc5[nH]ncc5c4)c3c2C1 (racemic) [Example 5, (RS)-Ethyl 4-(1H-indazol-5-ylamino)-6,7,8,9-tetrahydro-5H-pyrimido[4,5-b]indole-6-carboxylate] | 18 nM
11 | CC(=O)c1ccc(Nc2ncnc3[nH]c4c(c23)CC(C(=O)NCCCS(C)(=O)=O)CC4)cc1 (racemic) [Example 53, (RS)-4-[(4-Acetylphenyl)amino]-N-[3-(methylsulfonyl)propyl]-6,7,8,9-tetrahydro-5H-pyrimido[4,5-b]indole-6-carboxamide] | 335 nM
12 | COc1ccc(Cl)cc1Sc1ncnc2[nH]c3c(c12)CC(C(=O)NCCCS(C)(=O)=O)CC3 (racemic) [Example 148, (RS)-4-[(5-Chloro-2-methoxyphenyl)sulfanyl]-N-[3-(methylsulfonyl)propyl]-6,7,8,9-tetrahydro-5H-pyrimido[4,5-b]indole-6-carboxamide] | 1730 nM
13 | CS(=O)(=O)CCCNC(=O)C1CCc2[nH]c3ncnc(Nc4ccccc4OC(F)F)c3c2C1 (racemic) [Example 154, (RS)-4-{[2-(Difluoromethoxy)phenyl]amino}-N-[3-(methylsulfonyl)propyl]-6,7,8,9-tetrahydro-5H-pyrimido[4,5-b]indole-6-carboxamide] | 469 nM
14 | COCC1(OC)CCc2[nH]c3ncnc(Nc4ccc5[nH]ncc5c4)c3c2C1 (racemic) [Example 135] | 167 nM
15 | CCOC(=O)C1CCc2[nH]c3ncnc(Nc4ccccc4OC4CCCC4)c3c2C1 (racemic) [Example 170, (RS)-Ethyl 4-{[2-(cyclopentyloxy)phenyl]amino}-6,7,8,9-tetrahydro-5H-pyrimido[4,5-b]indole-6-carboxylate] | 1900 nM
16 | CC(C)Oc1cc(F)ccc1Nc1ncnc2[nH]c3c(c12)CSCC3 [Example 11, N-(4-Fluoro-2-isopropoxyphenyl)-5,7,8,9-tetrahydrothiopyrano[3′,4′:4,5]pyrrolo[2,3-d]pyrimidin-4-amine] | 42 nM
17 | CC(C)Oc1cc(F)ccc1Nc1ncnc2[nH]c3c(c12)CC(C(=O)NCCCS(C)(=O)=O)CC3 (racemic) [Example 28, (RS)-4-{[4-Fluoro-2-(propan-2-yloxy)phenyl]amino}-N-[3-(methylsulfonyl)propyl]-6,7,8,9-tetrahydro-5H-pyrimido[4,5-b]indole-6-carboxamide] | 8 nM
18 | Cn1c2c(c3c(Nc4ccc5[nH]ncc5c4)ncnc31)CC(C(=O)NCCCS(C)(=O)=O)CC2 (racemic) [Example 26, (RS)-4-(1H-Indazol-5-ylamino)-9-methyl-N-[3-(methylsulfonyl)propyl]-6,7,8,9-tetrahydro-5H-pyrimido[4,5-b]indole-6-carboxamide] | 1740 nM
19 | COc1cccc(C)c1Nc1ncnc2[nH]c3c(c12)CC(C(=O)NCCCS(C)(=O)=O)CC3 (racemic) [Example 75, (RS)-4-[(2-Methoxy-6-methylphenyl)amino]-N-[3-(methylsulfonyl)propyl]-6,7,8,9-tetrahydro-5H-pyrimido[4,5-b]indole-6-carboxamide] | 7670 nM
20 | Cc1nc2c(Nc3ncnc4[nH]c5c(c34)CC(C(=O)NCCCS(C)(=O)=O)CC5)cccc2[nH]1 (racemic) [Example 169, (RS)-4-[(2-Methyl-1H-benzimidazol-4-yl)amino]-N-[3-(methylsulfonyl)propyl]-6,7,8,9-tetrahydro-5H-pyrimido[4,5-b]indole-6-carboxamide] | 2700 nM
21 | Nc1cc(F)c([N+](=O)[O-])cc1Nc1ncnc2[nH]c3c(c12)CCCC3 [Example 109] | ≥ 20000 nM
22 | CS(=O)(=O)CCCNC(=O)C1CCc2[nH]c3ncnc(N4CCc5ccccc54)c3c2C1 (racemic) [Example 168, (RS)-4-(2,3-Dihydro-1H-indol-1-yl)-N-[3-(methylsulfonyl)propyl]-6,7,8,9-tetrahydro-5H-pyrimido[4,5-b]indole-6-carboxamide] | 803 nM
23 | O=C(Nc1ccccc1)C1CCc2[nH]c3ncnc(Nc4ccc5[nH]ncc5c4)c3c2C1 (racemic) [Example 16, (RS)-4-(1H-Indazol-5-ylamino)-N-phenyl-6,7,8,9-tetrahydro-5H-pyrimido[4,5-b]indole-6-carboxamide] | 15 nM
24 | COc1ccc(C(F)(F)F)cc1Nc1ncnc2[nH]c3c(c12)CC(C(=O)NCCCS(C)(=O)=O)CC3 (racemic) [Example 67, (RS)-4-{[2-Methoxy-5-(trifluoromethyl)phenyl]amino}-N-[3-(methylsulfonyl)propyl]-6,7,8,9-tetrahydro-5H-pyrimido[4,5-b]indole-6-carboxamide] | 28 nM

Reference: patent US20150133426A1, “SUBSTITUTED PYRROLOPYRIMIDINES” (BAYER PHARMA AKTIENGESELLSCHAFT, priority 2012, published 2015)
